These are literature values, as cited in patent US20240226034A1, “Use of Terpenoids and Salicylates as Anesthetics and Analgesics” (THE REGENTS OF THE UNIVERSITY OF CALIFORNIA, priority 2021, published 2024).

Structures are written as SMILES.

The series concerns rats. Particulars: antagonism of spinal GABAA receptors in rats; cited from earlier work.

For the compound `FC(F)OC(Cl)C(F)(F)F` (stereo not shown) [isoflurane], the “increase of EC50 for immobilization” value is listed as “up to 40%”.
